Experimental data as given in PubChem BioAssay (NCI).
Where “and” joins values, the source holds several entries; their conditions need not be identical. Identical values can stand only once.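 1) Cells in 96-well plates. 2) Compound, 48 h, 5 concentrations. 3) Linear interpolation between surrounding doses. 4) Unreached endpoint = highest concentration. GI50: concentration for 50% inhibition of growth. At the TGI there is no net growth.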

How the values were obtained:
Test in all cases: NCI anticancer screen, dose series, 48 h
CCRF-CEM leukemia = system: CCRF-CEM leukemia
EKVX NSCLC = system: EKVX NSCLC
LOX IMVI melanoma = system: LOX IMVI melanoma
MALME-3M melanoma = system: MALME-3M melanoma
OVCAR-3 ovarian = system: OVCAR-3 ovarian
SK-MEL-5 melanoma = system: SK-MEL-5 melanoma
SW-620 colon = system: SW-620 colon
TK-10 renal = system: TK-10 renal

| Compound | GI50 (CCRF-CEM leukemia) | TGI (CCRF-CEM leukemia) [µM] | GI50 (EKVX NSCLC) [µM] | TGI (EKVX NSCLC) [µM] | GI50 (LOX IMVI melanoma) [µM] | TGI (LOX IMVI melanoma) [µM] | GI50 (MALME-3M melanoma) [µM] | TGI (MALME-3M melanoma) [µM] | GI50 (OVCAR-3 ovarian) [µM] | TGI (OVCAR-3 ovarian) [µM] | GI50 (SK-MEL-5 melanoma) [µM] | TGI (SK-MEL-5 melanoma) [µM] | GI50 (SW-620 colon) [µM] | TGI (SW-620 colon) [µM] | GI50 (TK-10 renal) [µM] | TGI (TK-10 renal) [µM] |
| --- | --- | --- | --- | --- | --- | --- | --- | --- | --- | --- | --- | --- | --- | --- | --- | --- |
| COc1ccc(C(=O)C(CN(C)C)c2ccccc2)cc1 (stereo unspecified) | 1.84 µM | 11.9 | 14.1 | 34.1 | 1.73 | 3.8 | 3.3 | 13.6 | 1.42 | 2.89 | 4.22 | 15.4 | 0.496 | 1.57 | 3.01 | 7.85 |
| CN1CCN(Cc2ccc(NC(=O)c3cncc(C#Cc4cncc5[nH]ncc45)c3)cc2C(F)(F)F)CC1 | 1.25 µM | 5.07 | 1.46 | 6.27 | 0.171 | 0.689 | 0.0987 | 0.383 | 1.46 | 6.39 | 1.17 | 4.58 | 0.611 | 3.64 | 1.38 | 5.43 |
| N#CSc1cc(-c2nc3ccccc3o2)ccc1N | 10.6 µM | 30.2 | 5 | 37.2 | 13.5 | 43.9 |  |  | 17.9 | > 56.7 | 11.1 | 29.2 | 25.7 | > 86.2 | 19.2 | 52.3 |
| CCOC(=O)CCC(NC(=O)c1ccc(Nc2nc3cc(N)cc(N)c3nc2-c2ccccc2)cc1)C(=O)OCC (stereo unspecified) | 5.15 µM | > 100 | > 53.8 | > 100 | 25.4 | > 100 | 8.1 | 15.8 | 13.4 | 39.4 | 12.6 | 44.6 | 45.6 | > 100 | > 57.4 | > 87.3 |
| C=C1C(=O)O[C@H]2[C@H]1CC/C(COC(=O)c1ccc(Br)cc1)=C\CC[C@@]1(C)O[C@@H]21 | 0.393 µM | 7.76 | 1.76 | 4.05 | 0.797 | 2.19 |  |  | 1.02 | 2.24 | 1.81 | 3.28 | 1.08 | 2.87 | 1.9 | 3.33 |
| CCCCOc1nc2ccccc2cc1C1CNC(=O)c2ccccc2N1 (stereo unspecified) | 2.93 µM | 18.8 | 5.15 | 63 | 3.24 | 15.4 | 5.82 | 38.4 | 1.56 | 3.86 | 2.79 | 18.4 | 2.59 | 21.5 | 5.92 | 22.1 |
| COc1ccc(C2C3=C(COC3=O)N(CCO)c3cc4c(cc32)CCC4)cc1OC (stereo unspecified) | 1.73 µM | > 50 | 2.95 | > 50 | 1.53 | > 50 | 0.291 | > 50 | 0.127 | 0.332 | 0.246 | > 50 | 0.328 | > 50 |  | > 50 |
| O=C(c1nc2ccccc2[nH]1)C1C(c2cccc([N+](=O)[O-])c2)C2CC3CCCCC3N2[C@@]12C(=O)Nc1cc(Cl)ccc12 (stereo partly specified) | 3.11 µM | > 100 | 2.02 | 6.31 | 1.55 | 2.96 | 1.42 | 2.96 |  |  | 1.69 | 3.1 | 1.78 | 4.31 | 2.12 | 4.91 |
| CCN1CCN(c2nc(NNC(=O)c3cccc(OC)c3)nc(N3CCN(C(c4ccccc4)c4ccccc4)CC3)n2)CC1 | 2.6 µM | > 100 | 2.46 | 12.3 | 1.62 | 2.97 | 1.52 | 2.94 | 1.94 | 3.78 | 1.64 | 3 | 1.75 | 3.45 | 1.78 | 3.55 |
| NC(=S)c1cn(C2OC(CO)C(O)C2O)c2ncnc(N)c12 (stereo unspecified) | 0.153 µM | 0.507 | 0.25 |  | 0.139 | 2.49 | 0.0279 | 0.125 | 0.173 | 1.23 | 0.223 | 0.975 | 0.105 | 0.592 | 0.185 | 0.827 |
| CCn1c(-c2nonc2N)nc2c(C#CC(C)(C)O)ncc(OCC3CCNCC3)c21 | 4.5 µM | > 25 | > 25 | > 25 | 7.04 | > 25 | > 25 | > 25 | 7.07 | > 23.6 | 8.87 | > 21.2 | 10.1 | > 25 | 8.28 | > 25 |
| O=C(Nc1ccc(Oc2cccc(Cl)c2)c(Cl)c1)c1cccnc1 | 1.89 µM | > 50 | 3.62 | > 50 | 2.9 | 13 | 3.16 | 32.8 | 1.22 | 4.28 | 1.78 | 6.92 | 1.21 | > 50 | 3.16 | 40.1 |
| O=C(N/N=C\c1cc(Br)cc(Br)c1O)N/N=C/c1cc(Br)cc(Br)c1O | 0.534 µM | 4.48 | 4.09 | 17.8 | 2.57 | 12.1 | 11.5 | 31.3 | 4.03 | 16.3 | 1.83 | 4.69 | 4.52 | 19.6 | 10.6 | 26.2 |
| COC(=O)CCCCCCCCC(=O)c1c(C)[nH]c(/C=C2\N=C(c3ccc[nH]3)C=C2OC)c1C | 2.3 µM | > 100 | > 100 | > 100 | 0.207 | 0.466 | > 22.9 | > 100 | > 48.1 | > 86.3 | 1.97 | 5.67 | > 62 | > 100 | > 100 | > 100 |
| COc1ccc2c(c1)/C(=N/OC(C)=O)c1c-2c(Nc2ccc(/C(C)=N/OC(C)=O)cc2)nc2ccccc12 | 23.9 µM | 47.4 | 82.1 | > 100 | 29.1 | 63.5 | 56.8 | > 100 | 30.1 | 87.4 | 79.4 | > 100 | 36.5 | > 100 | > 100 | > 100 |
| CN(C)CC1CCCCCCCCCCC1=O (stereo unspecified) | > 10 µM and 99.4 µM | > 100 | > 100 | > 100 |  |  | > 100 | > 100 | > 100 | > 100 |  | > 100 | > 100 | > 100 | > 100 | > 100 |

| Compound | GI50 (CCRF-CEM leukemia) | TGI (CCRF-CEM leukemia) [µM] | GI50 (EKVX NSCLC) [µM] | TGI (EKVX NSCLC) [µM] | GI50 (LOX IMVI melanoma) [µM] | TGI (LOX IMVI melanoma) [µM] | GI50 (MALME-3M melanoma) [µM] | TGI (MALME-3M melanoma) [µM] | GI50 (OVCAR-3 ovarian) [µM] | TGI (OVCAR-3 ovarian) [µM] | GI50 (SK-MEL-5 melanoma) [µM] | TGI (SK-MEL-5 melanoma) [µM] | GI50 (SW-620 colon) [µM] | TGI (SW-620 colon) [µM] | GI50 (TK-10 renal) [µM] | TGI (TK-10 renal) [µM] |
| --- | --- | --- | --- | --- | --- | --- | --- | --- | --- | --- | --- | --- | --- | --- | --- | --- |
| Fc1ccc(-c2ncn(C3CCNCC3)c2-c2ccnc(Oc3ccc(Oc4ccccc4)cc3)n2)cc1 | 5.22 µM | 10.3 | 3.87 | 7.74 | 3.15 | 7.09 | 4.68 | 8.95 | 4.36 | 7.94 | 3.55 | 6.82 | 3.55 | 7.06 | 4.35 | 7.98 |
| Nc1cc2ccncc2c2ccccc12 | 12.6 µM | 99.1 | 19.3 | > 100 | 8.68 | > 100 | 15.7 | 31.4 | 18.8 | 76.5 | 15.3 | 31.2 | 5.19 | 89 | 20.2 | 91.1 |
| Cn1ccnc1C(=O)/C=C/c1ccc(CC(=O)Nc2cc(F)c(F)c(F)c2)cc1 |  |  | 3.51 | 7.41 | 1.03 | 3.79 | 3.65 | 10.8 | 1.36 | 4.44 | 3.25 | 6.47 | 1.46 | 8.98 | 4.29 | 13.4 |
| CO[C@H]1/C=C/C=C/C=C/C[C@H](OC(=O)[C@@H](C)NC(=O)C2CCCCC2)[C@H](C)[C@@H](O)/C(C)=C\CCC2=CC(=O)C=C(NC(=O)C1)C2=O | 0.114 µM | > 50 | 0.174 | 2.25 | 0.104 | 0.547 | 0.113 | 0.801 | 0.154 | 0.997 | 0.0845 | 0.521 | 0.179 | 3.63 | 0.274 | 2.31 |
| NS(=O)(=O)c1ccc(N=Nc2cc3ccccc3c(C(=O)O)c2O)cc1 |  | > 100 |  | > 100 |  | > 100 |  | > 82 |  | > 87.6 |  | > 100 |  | > 100 |  | > 80.6 |
| Nc1ccc(Sc2ccc3c4c2cccc4c(=O)n2c4ccccc4nc32)cc1 | 2.35 µM | > 100 |  |  | 3.32 | 14.3 | 3.12 | 16.9 | 6.4 | 24.4 | 2.92 | 13.9 | 5.16 | > 100 |  |  |
| C=C(C)[C@@H]1CC[C@@H]2C(=CC[C@]3(C)C([C@H](C)CC/C=C(/C)C(=O)O)CC[C@@]23C)[C@@]1(C)CCC(=O)O (stereo partly specified) |  | 53.7 |  | > 100 |  | 37.8 |  | 61 |  | 44.6 |  | 41.2 |  | > 100 |  | > 100 |
| COc1cc(C2CC(c3cc(Cl)c(C)cc3O)=NN2c2ccc(S(N)(=O)=O)cc2)cc(OC)c1OC (stereo unspecified) | 4.51 µM | > 100 | 3.26 | 43.7 | 2.08 | 4.28 | 2.08 | 4.89 | 2.19 | 4.77 | 2.02 | 4.18 | 3.35 | 10.7 | 2.6 | 6.6 |
| CCN(CC)c1ccc(/C=C2/NC(=O)NC2=O)cc1 | 9.66 µM | > 100 | 0.753 | > 100 | 9.73 | > 100 | 16 | > 100 | 2.41 | 7.18 | 3.19 | > 74.9 | 3.47 | > 100 | 9.56 | > 100 |
| COC(=O)C1=C(C)NC(C)=C(C(=O)OC)C1c1ccccc1[N+](=O)[O-] | > 100 µM | > 100 | 64.3 | > 100 | > 100 | > 100 | > 100 | > 100 | 93.2 | > 100 |  |  | > 100 | > 100 | > 100 | > 100 |
| CCN(CC)Cc1cc(Nc2c3ccc(Cl)cc3nc3c(C)cccc23)ccc1O |  |  | 1.86 | 3.98 | 1.29 | 2.61 | 1.65 | 3.13 | 1.97 | 3.73 | 1.76 | 3.15 | 1.06 | 2.53 | 2.69 | 5.59 |
| Cc1c(-c2ccnc(N)n2)c2c(n1-c1ccccc1)C(=O)c1ccccc1C2=O | > 100 µM | > 100 | 21.5 | 63.7 | 10.6 | 24.2 |  |  | 12.3 | 30.6 | 16.2 | 34.1 | 38.9 | > 100 | 20.2 | 63.3 |
| Cn1cc(C2=C(c3cccc(Cl)c3)C(=O)NC2=O)c2ccccc21 | > 25 µM | > 25 |  |  | > 25 | > 25 | > 25 | > 25 | > 25 | > 25 | 10.7 | > 25 | > 25 | > 25 | 13.4 | > 25 |
| Clc1cc(-c2csc(Cl)c2)cs1 |  | > 100 |  | > 100 |  | > 100 |  |  |  | > 100 |  | > 100 |  | > 100 |  | > 100 |
| c1ccc2c(Nc3ccc4c(c3)OCO4)c3ccoc3nc2c1 | 15.2 µM | > 100 |  |  | 17.9 | 41.7 | 15.9 | 34.3 | 15.5 | 36.6 | 8.85 | 31.2 |  |  | 19.4 | 42.9 |
| N#CCCCCCn1c2ccccc2c2c3c(c4c5ccccc5[nH]c4c21)C(=O)N(O)C3=O |  |  | 1.77 | 5.63 | 0.24 | 1.44 | 1.96 | 5.01 | 1.47 | 5.72 | 0.403 | 1.5 | 1.01 | 34.8 | 2.2 | 7.88 |
